Test results: patent US7964607B2, “Pyrazolo[3,4-d]pyrimidine compounds” (Pfizer Inc., priority 2007, dated 2011)
Where two headings read alike, the source gives them in different places.

Molecular target: T1, human recombinant PDE9 enzyme (Homo sapiens, UniProt O76083)
T1 construct: made in house; host or cells: SF-9 insect cells
Assay: Phosphodiesterase 9 (PDE9) inhibitory activity, Scintillation Proximity (SPA) assay
Type: biochemical
In short: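 Scintillation proximity read-out of [3H]cGMP hydrolysis after 30 min at room temperature, with enzyme addition starting the reaction. The enzyme was human recombinant PDE9 expressed in SF-9 cells, titrated to keep substrate turnover at 20% or less. Compound wells held 2% DMSO final, and background was defined with excess PDE inhibitor.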

[1] = human recombinant PDE9 from SF-9 cells, 50 nM [3H]cGMP, room temperature, 30 min, Examples 3-114, read-out: G5678A (U): IC50
[2] = human recombinant PDE9 from SF-9 cells, 50 nM [3H]cGMP, room temperature, 30 min, additional compounds Ex. 115-228, read-out: G5678A (U):IC50

T1 sequence (O76083 whole entry): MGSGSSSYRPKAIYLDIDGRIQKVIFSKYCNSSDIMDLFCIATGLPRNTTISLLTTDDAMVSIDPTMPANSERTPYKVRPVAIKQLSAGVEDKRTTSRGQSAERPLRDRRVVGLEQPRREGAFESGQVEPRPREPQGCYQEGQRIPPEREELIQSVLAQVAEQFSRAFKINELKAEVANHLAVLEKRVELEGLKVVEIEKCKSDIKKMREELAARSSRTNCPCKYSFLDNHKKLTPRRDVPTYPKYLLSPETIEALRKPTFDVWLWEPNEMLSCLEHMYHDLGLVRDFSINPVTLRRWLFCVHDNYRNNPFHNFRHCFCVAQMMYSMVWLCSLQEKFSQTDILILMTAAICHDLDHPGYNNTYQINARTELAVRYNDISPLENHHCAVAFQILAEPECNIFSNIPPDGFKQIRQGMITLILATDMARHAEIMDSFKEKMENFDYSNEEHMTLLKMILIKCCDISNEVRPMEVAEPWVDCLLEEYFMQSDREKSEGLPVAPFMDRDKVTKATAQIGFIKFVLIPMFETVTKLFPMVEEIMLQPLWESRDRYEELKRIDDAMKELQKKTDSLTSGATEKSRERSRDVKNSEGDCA

Compound	IC50 [1]	IC50 [2]	further results
CC(C)n1ncc2c(=O)[nH]c([C@@H]3CN(Cc4ccnc5cccnc45)C[C@H]3C)nc21 [Example 65, 1-isopropyl-6-[(3S,4S)-4-methyl-1-(1,5-naphthyridin-4-ylmethyl)pyrrolidin-3-yl]-1,5-dihydro-4H-pyrazolo[3,4-d]pyrimidin-4-one]	17.1 nM	–	–
Cc1ncc(CN2C[C@@H](C)[C@H](c3nc4c(cnn4C4CCOCC4)c(=O)[nH]3)C2)cn1 [Example 73, 6-{(3S,4S)-4-methyl-1-[(2-methylpyrimidin-5-yl)methyl]pyrrolidin-3-yl}-1-(tetrahydro-2H-pyran-4-yl)-1,5-dihydro-4H-pyrazolo[3,4-d]pyrimidin-4-one]	–	–	IC50: 6.01 nM
C[C@@H]1CN(Cc2cncnc2)C[C@H]1c1nc2c(cnn2C2CCCC2)c(=O)[nH]1 (racemic) [Example 14, 1-cyclopentyl-6-[(3,4-trans)-4-methyl-1-(pyrimidin-5-ylmethyl)pyrrolidin-3-yl]-1,5-dihydro-4H-pyrazolo[3,4-d]pyrimidin-4-one]	26 nM	–	–
CC(C)Oc1ccccc1CN1C[C@@H](C)[C@H](c2nc3c(cnn3C3CCCC3)c(=O)[nH]2)C1 (racemic) [Example 181, 1-cyclopentyl-6-[(3,4-trans)-1-(2-isopropoxybenzyl)-4-methylpyrrolidin-3-yl]-1,5-dihydro-4H-pyrazolo[3,4-d]pyrimidin-4-one]	–	134 nM	–
Cc1cnc(CN2C[C@@H](C)[C@H](c3nc4c(cnn4C(C)C)c(=O)[nH]3)C2)cn1 [Example 50, 1-isopropyl-6-{(3S,4S)-4-methyl-1-[(5methylpyrazin-2-yl)methyl]pyrrolidin-3-yl}-1,5-dihydro-4H-pyrazolo[3,4-d]pyrimidin-4-one]	125 nM	–	–
C[C@@H]1CN(Cc2ccc(C#N)cc2)C[C@H]1c1nc2c(cnn2C2CCCC2)c(=O)[nH]1 (racemic) [Example 193, 4-{[(3,4-trans)-3-(1-cyclopentyl-4-oxo-4,5-dihydro-1H-pyrazolo[3,4-d]pyrimidin-6-yl)-4-methylpyrrolidin-1-yl]methyl}benzonitrile]	–	57.7 nM	–
C[C@@H]1CN(Cc2ccc3c(c2)OCCN3C)C[C@H]1c1nc2c(cnn2C2CCCC2)c(=O)[nH]1 (racemic) [Example 200, 1-cyclopentyl-6-{(3,4-trans)-4-methyl-1-[(4-methyl-3,4-dihydro-2H-1,4-benzoxazin-7-yl)methyl]pyrrolidin-3-yl}-1,5-dihydro-4H-pyrazolo[3,4-d]pyrimidin-4-one]	–	176 nM	–
O=c1[nH]c([C@@H]2CN(Cc3ccc4nccnc4c3)C[C@H]2C(F)(F)F)nc2c1cnn2C1CCCC1 (racemic) [Example 52, 1-cyclopentyl-6-[(3,4-trans)-1-(quinoxalin-6-ylmethyl)-4-(trifluoromethyl)pyrrolidin-3-yl]-1,5-dihydro-4H-pyrazolo[3,4-d]pyrimidin-4-one]	26 nM	–	–
C[C@@H]1CN(Cc2cccc3nsnc23)C[C@H]1c1nc2c(cnn2C2CCCC2)c(=O)[nH]1 (racemic) [Example 221, 6-[(3,4-trans)-1-(2,1,3-benzothiadiazol-4-ylmethyl)-4-methylpyrrolidin-3-yl]-1-cyclopentyl-1,5-dihydro-4H-pyrazolo[3,4-d]pyrimidin-4-one]	–	12.7 nM	–
C[C@@H]1CN(Cc2cnn3c2CCC3)C[C@H]1c1nc2c(cnn2C2CCCC2)c(=O)[nH]1 (racemic) [Example 228, 1-cyclopentyl-6-[(3,4-trans)-1-(5,6-dihydro-4H-pyrrolo[1,2-b]pyrazol-3-ylmethyl)-4-methylpyrrolidin-3-yl]-1,5-dihydro-4H-pyrazolo[3,4-d]pyrimidin-4-one]	–	49.1 nM	–
C[C@@H]1CN(Cc2ccc(C(F)(F)F)nc2)C[C@H]1c1nc2c(cnn2C2CCCC2)c(=O)[nH]1 (racemic) [Example 11, 1-cyclopentyl-6-[(3,4-trans)-4-methyl-1-{[6-(trifluoromethyl)pyridin-3-yl]methyl}pyrrolidin-3-yl]-1,5-dihydro-4H-pyrazolo[3,4-d]pyrimidin-4-one]	18.9 nM	–	–
C[C@@H]1CN(Cc2ccccc2)C[C@H]1c1nc2c(cnn2C2CCC(F)(F)CC2)c(=O)[nH]1 (racemic) [Example 63, 6-[(3,4-trans)-1-benzyl-4-methylpyrrolidin-3-yl]-1-(4,4-difluorocyclohexyl)-1,5-dihydro-4H-pyrazolo[3,4-d]pyrimidin-4-one]	123 nM	–	–
COc1ccc(F)c(CN2C[C@@H](C)[C@H](c3nc4c(cnn4C4CCCC4)c(=O)[nH]3)C2)c1 (racemic) [Example 194, 1-cyclopentyl-6-[(3,4-trans)-1-(2-fluoro-5-methoxybenzyl)-4-methylpyrrolidin-3-yl]-1,5-dihydro-4H-pyrazolo[3,4-d]pyrimidin-4-one]	–	54.7 nM	–
C[C@@H]1CN(Cc2ccc(Cl)cc2F)C[C@H]1c1nc2c(cnn2C2CCCC2)c(=O)[nH]1 (racemic) [Example 154, 6-[(3,4-trans)-1-(4-chloro-2-fluorobenzyl)-4-methylpyrrolidin-3-yl]-1-cyclopentyl-1,5-dihydro-4H-pyrazolo[3,4-d]pyrimidin-4-one]	–	175 nM	–

Further lines, with some results ahead:

IC50 [1]	IC50 [2]	Compound	further results
–	90 nM	Cc1cc(CN2C[C@@H](C)[C@H](c3nc4c(cnn4C4CCCC4)c(=O)[nH]3)C2)ccc1F (racemic) [Example 184, 1-cyclopentyl-6-[(3,4-trans)-1-(4-fluoro-3-methylbenzyl)-4-methylpyrrolidin-3-yl]-1,5-dihydro-4H-pyrazolo[3,4-d]pyrimidin-4-one]	–
–	53.5 nM	Cc1cc(C)cc(CN2C[C@@H](C)[C@H](c3nc4c(cnn4C4CCCC4)c(=O)[nH]3)C2)c1 (racemic) [Example 197, 1-cyclopentyl-6-[(3,4-trans)-1-(3,5-dimethylbenzyl)-4-methylpyrrolidin-3-yl]-1,5-dihydro-4H-pyrazolo[3,4-d]pyrimidin-4-one]	–
–	28 nM	C[C@@H]1CN(Cc2ccc(Cl)c(Cl)c2)C[C@H]1c1nc2c(cnn2C2CCCC2)c(=O)[nH]1 (racemic) [Example 220, 1-cyclopentyl-6-[(3,4-trans)-1-(3,4-dichlorobenzyl)-4-methylpyrrolidin-3-yl]-1,5-dihydro-4H-pyrazolo[3,4-d]pyrimidin-4-one]	–
5.53 nM	–	Cc1cc(CN2C[C@@H](C)[C@H](c3nc4c(cnn4C4CCCC4)c(=O)[nH]3)C2)n(C)n1 [Example 47, 1-cyclopentyl-6-{(3S,4S)-1-[(1,3-dimethyl-1H-pyrazolo-5-yl)methyl]-4-methylpyrrolidin-3-yl}-1,5-dihydro-4H-pyrazolo[3,4-d]pyrimidin-4-one]	–
–	55.2 nM	COc1ccc(CN2C[C@@H](C)[C@H](c3nc4c(cnn4C4CCCC4)c(=O)[nH]3)C2)cc1C (racemic) [Example 125, 1-cyclopentyl-6-[(3,4-trans)-1-(4-methoxy-3-methylbenzyl)-4-methylpyrrolidin-3-yl]-1,5-dihydro-4H-pyrazolo[3,4-d]pyrimidin-4-one]	–
–	36 nM	COc1cc(CN2C[C@@H](C)[C@H](c3nc4c(cnn4C4CCCC4)c(=O)[nH]3)C2)ccc1F (racemic) [Example 148, 1-cyclopentyl-6-[(3,4-trans)-1-(4-fluoro-3-methoxybenzyl)-4-methylpyrrolidin-3-yl]-1,5-dihydro-4H-pyrazolo[3,4-d]pyrimidin-4-one]	–
–	198 nM	Cc1cccc(C)c1CN1C[C@@H](C)[C@H](c2nc3c(cnn3C3CCCC3)c(=O)[nH]2)C1 (relative stereo) [Example 195, 1-cyclopentyl-6-[(3,4-trans)-1-(2,6-dimethylbenzyl)-4-methylpyrrolidin-3-yl]-1,5-dihydro-4H-pyrazolo[3,4-d]pyrimidin-4-one]	–
